# Data as given in US8835622B2, “Expression cassettes for seed-specific expression in plants” (Bayer BioScience N.V., priority 2008, dated 2014).
# “Also recorded” adds a separate entry of the source. Like-named read-outs stand apart in the source and are kept apart here.
# System: CYP704A2
# Assay: Enzyme activity and substrate specificity of recombinant CYP704A2 (microsomes from yeast, radiolabeled substrates, TLC and GC/MS of metabolites)
# Assay type: biochemical, Arabidopsis thaliana
# Conditions: for substrate of CYP704A2 / relative rate of metabolism (in words): 100 μM 14C radiolabelled substrate, with NADPH, TLC; for substrate of CYP704A2 / relative rate of metabolism (in words) / % of metabolisation / Product (nmole/min/nmole P450): 20 min at 27° C.; for % of metabolisation / Product (nmole/min/nmole P450): microsomes from yeast expressing CYP704A2, 100 μM radiolabeled substrate, 78 pmoles of CYP704A2, TLC
# Method: Heterologous expression of CYP704A2 in Yeast—For functional expression of the full length CYP704A2 clone, we used a yeast expression system specifically developed for the expression of P450 enzymes and consisting of plasmid pYeDP60 and Saccharomyces cerevisiae WAT11 strain (Pompon D. et al (1996) Methods Enzymol 272, 51-64). Yeast cultures were grown and CYP704A2 expression was induced as described in Pompon et al. (1996) see above from one isolated transformed colony. After growth, cells were harvested by centrifugation and manually broken with glass beads (0.45 mm diameter) in 50 mM Tris-HCl buffer (pH 7.5) containing 1 mM EDTA and 600 mM sorbitol. The homogenate was centrifuged for 10 min at 10,000 g. The resulting supernatant was centrifuged for 1 h at 100,000 g. The pellet consisting of microsomal membranes was resuspended in 50 mM Tris-HCl (pH 7.4), 1 mM EDTA and 30% (v/v) glycerol with a Potter-Elvehjem homogenizer and stored at −30° C. The volume of resuspension buffer is proportional to the weight of yeast pellet: microsomes extracted from 6 g of yeast are resuspended in 3 ml of buffer. All procedures for microsomal preparation were carried out at 0-4° C. The cytochrome P450 content was measured by the method of Omura and Sato (1964) J Biol Chem 239, 2370-2378.
# Enzyme activities—radiolabeled substrates were dissolved in ethanol that was evaporated before the addition of microsomes into the glass tube. Resolubilization of the substrates was confirmed by measuring the radioactivity of the incubation media. Enzymatic activities of CYP704A2 from transformed yeast or Arabidopsis microsomes were determined by following the formation rate of metabolites. The standard assay (0.1 ml) contained 20 mM sodium phosphate (pH 7.4), 1 mM NADPH, and radiolabeled substrate (100 μM). The reaction was initiated by the addition of NADPH and was stopped by the addition of 20 μl acetonitrile (containing 0.2% acetic acid). The reaction products were resolved by TLC or HPLC as described below.
# Thin layer chromatographic (TLC) methods—Incubation media were directly spotted on TLC plates. For separation of metabolites from residual substrate, TLC were developed with a mixture of diethyl ether/light petroleum (boiling point, 40-60° C.)/formic acid (50:50:1, v/v/v). The plates were scanned with a radioactivity detector (Raytest Rita Star). The area corresponding to the metabolites were scraped into counting vials and quantified by liquid scintillation, or they were eluted from the silica with 10 ml of diethyl ether, which was removed by evaporation. They were then subjected to GC/MS analysis.
# GC/MS analysis—GC-MS analysis were carried out on a gas chromatograph (Agilent 6890 Series) equipped with a 30-m capillary column with an internal diameter of 0.25 mm and a film thickness of 0.25 μm (HP-5MS). The gas chromatograph was combined with a quadrupole mass selective detector (Agilent 5973N). Mass spectra were recorded at 70 eV and analysed as in Eglinton et al. (1968) Org. Mass. Spectrom 1, 593-611.
# The enzyme activity and substrate specificity of CYP704A2 was subsequently evaluated. Thereto 20 μl of microsomal membranes overexpressing CYP704A2 (i.e. […]) were incubated 20 min at 27° C. with 100 μM of different ^14C radiolabelled fatty acids, alkanols or alkanes (purchased with American Radiolabeled Chemicals) together with 0.1 mM of NADPH, 0.4 Units of glucose-6-phosphate dehydrogenase, 3 mM glucose-6-phosphate in buffer NaPi 20 mM, pH 7.4 in a final reaction volume of 100 μl. The reaction was quenched by the addition of 20 μl of 20% of acetonitrile in water, and the incubation mix was spotted on silicagel 60F254 plates (Merck) for analysis. Plates were developed with a mix of ether/petroleum ether/formic acid 50/50/1 until the migration front reached the top of the plate. Dried plates were then scanned with a Raytest radioisotope thin-layer analyzer and radioactivity in the spots of interest was quantified in order to evaluate the substrate conversion. […]
SMILES,Product (nmole/min/nmole P450),substrate of CYP704A2 / relative rate of metabolism (in words),further results
"CCCCCCCCCCCCCCCC(=O)O [C16:0, palmitic acid]",18.3,preferentially metabolized,substrate of CYP704A2 / relative rate of metabolism (in words) (listed as palmitic acid): best substrate; rate of palmitic acid metabolism (concentration of palmitic acid of 100 μM): 18.3 nmol/min/nmole of P450; % of metabolisation: 14.3%
"CCCCCCCCCCCCCCCC [C16 alkane, hexadecane]",22.4,,"products formed on incubation with CYP704A2 (TLC, GC/MS) (incubation with CYP704A2, products purified on TLC and identified by GC/MS): formation of three more polar compounds; % of metabolisation: 7.1%"
CCCCCC/C=C\CCCCCCCC(=O)O [palmitoleic acid],,not substrates,
CCCCCCCCCCCCCC(=O)O [myristic acid],,not substrates,
CCCCCCCCCCCCCCCCCC(=O)O [stearic acid],,not substrates; also recorded: not metabolized,

# Now from value to compound, other results behind:
Product (nmole/min/nmole P450),SMILES,substrate of CYP704A2 / relative rate of metabolism (in words),further results
7.3,"CCCCCCCCCCCC(=O)O [C12:0, lauric acid]",,
12.6,"CCCCCCCCCCCCO [C12-OH:0, dodecanol]",,"products formed on incubation with CYP704A2 (TLC, GC/MS): formation of two more polar compounds"
6.5,CCCCCCCCCCCCCCCCO [C16-OH:0],,
